# Measurements: PMC7561186, “Rational design of balanced dual-targeting antibiotics with limited resistance” (PLoS Biology, 2020)
# Where “and” joins values, the source holds several entries; their conditions need not be identical. Equal values may be shown once. Read-outs that look alike come from different tables or passages of the source.
# Legend:
# [1] = test system: HepG2 cells; conditions: LDH assay
# [2] = in vitro; conditions: human
# [3] = test system: novobiocin-resistant S. aureus VISA ATCC 700699 mutants; assay: MIC against novobiocin-resistant (novobiocin-adapted) strains; type: cell-based; conditions: for MIC: Staphylococcus aureus
# Procedure: (§1) MICs were determined using a standard serial broth microdilution technique according to the CLSI guidelines. Briefly, bacterial strains were inoculated onto MHBII agar plates and were grown overnight at 37 °C. Next, 3 individual colonies from each strain were inoculated into 1 mL MHBII medium and propagated at 37 °C, 250 rpm overnight. In the cases of Enterococcus and Streptococcus sp., cells were plated to BHI agar plates, and BHI broth was used to determine MICs. […] Following dilutions, each well was seeded with 5×10^4 bacterial cells. All measurements were performed in 3 parallel replicates and to avoid possible edge effects in microwell plates, side rows (A and H) were filled with sterile medium. Following inoculations, plates were covered with lids and wrapped in polyethylene plastic bags to minimize evaporation but allow for O2 transfer. Plates were incubated at 37 °C under continuous shaking at 150 rpm for 18 hours. After incubation, OD600 of each well was measured using a BioTek Synergy 2 microplate reader.
# [4] = in vitro; conditions: human; remark: listed apart in the source
# [5] = molecular target: T1, S. aureus topoisomerase IV (Staphylococcus aureus, UniProt P0C1S7); assay: S. aureus topoisomerase IV gel-based assay; type: biochemical; conditions: quadruplicates
# T1 construct: purchased Inspiralis Ltd., Norwich, UK
# [6] = test system: S. aureus VISA ATCC 700699 GyrB / ParE mutants; assay: MIC of spontaneous resistant mutants (single-step and second-step); type: cell-based; conditions: for MIC: Staphylococcus aureus
# Procedure: as §1
# [7] = test system: S. aureus ATCC 700699 and S. aureus ATCC 43300; assay: Spontaneous frequency-of-resistance assay; type: cell-based; conditions: for mutant prevention concentration (MPC): S. aureus ATCC 700699 (VISA), estimate
# Procedure: Prior to plating, bacteria were grown overnight in MHBII medium at 37 °C, 250 rpm, collected by centrifugation, and washed once in equal volumes of MHBII broth. From this concentrated cell suspension (250 μL), approximately 10^10 cells were then plated to each MHBII agarose plates. […] All experiments were performed in at least 3 replicates. Plates were grown at 37 °C for 72 hours. Total CFUs were determined simultaneously in each experiment by plating appropriate dilutions to antibiotic-free MHBII agar plates. Finally, resistance frequencies for each strain were calculated by dividing the number of colonies formed after a 72-hour incubation at 37 °C by the initial viable cell count.
# [8] = test system: S. aureus ATCC 700699 VISA; assay: Time-dependent killing; type: cell-based; conditions: for Time-kill bacterial count: 10xMIC; for cell killing (bactericidal) activity: 10× MIC, S. aureus ATCC 700699 (VISA), in words; for Colony numbers: time-kill raw counts, Samples 1-3
# Procedure: Time-dependent killing experiments were performed as previously. S. aureus ATCC 700699 VISA cells were inoculated to MHBII agar plates and grown overnight at 37 °C. Next, 3 independent stationer-phase starter cultures were grown at 37 °C, 250 rpm overnight, in 3 × 1 mL MHBII broth. Next, 100-fold diluted cultures were prepared from each in 20 mL fresh MHBII medium and grown at 37 °C, 250 rpm until early exponential phase (OD600 = 0.3–0.4; i.e., 5 × 10^5 cells/mL). […] Cells were treated with antibiotics in Erlenmeyer flasks at 37 °C, 150 rpm for 48 hours. […] Next, 50 μL from each dilution were plated on MHBII agar plates, and plates were incubated overnight at 37 °C to calculate CFU per mL.
# [9] = WT S. aureus VISA ATCC 700699, read-out: MIC
# [10] = second-step mutant, selection ULD1 at 16× MIC, GyrB I175T, ParE A120D
# [11] = second-step mutant, selection ULD1 at 16× MIC, GyrB I175T, ParE F95Y
# [12] = second-step mutant, selection ULD1 at 16× MIC, GyrB I175T, ParE T166A
# [13] = second-step mutant, selection ULD1 at 16× MIC, GyrB I175T, ParE T166I
# [14] = second-step mutant, selection ULD1 at 16× MIC, GyrB R144I, ParE A120D
# [15] = second-step mutant, selection ULD1 at 16× MIC, GyrB R144I, ParE F95Y
# [16] = second-step mutant, selection ULD1 at 16× MIC, GyrB R144I, ParE R136G
# [17] = second-step mutant, selection ULD2 at 8× MIC, GyrB I175T, ParE A120D
# [18] = second-step mutant, selection ULD2 at 12× MIC, GyrB R144I, ParE A120D
# [19] = second-step mutant, selection ULD2 at 12× MIC, GyrB R144I, ParE F95Y
# [20] = second-step mutant, selection ULD2 at 12× MIC, GyrB R144I, ParE R136G
# [21] = Staphylococcus aureus (MRSA) ATCC 43300, 2xMIC
# [22] = Staphylococcus aureus (MRSA) ATCC 43300, 4xMIC
# [23] = Staphylococcus aureus (MRSA) ATCC 43300, 8xMIC
# [24] = Staphylococcus aureus (VISA) ATCC 700699, 2xMIC
# [25] = Staphylococcus aureus (VISA) ATCC 700699, 4xMIC
# [26] = Staphylococcus aureus (VISA) ATCC 700699, 8xMIC
structure (smiles),measurement,setting,value
Cc1[nH]c(C(=O)Nc2nc3ccc(C(=O)O)cc3s2)c(Cl)c1Cl [ULD1],Max. % inhibition at 100 µM,[1],Max. % inhibition at 100 µM: 1.53%
same,IC50,[2],> 100 µM
same,decrease in susceptibility compared with wild-type strain,[3]; 9 independently evolved novobiocin-resistant isolates,up to 6 fold
same,MIC,[3]; [9],0.04 µg/mL
same,MIC,[3]; novobiocin-adapted Evolved 1,0.016 µg/mL
same,MIC,[3]; novobiocin-adapted Evolved 2,0.125 µg/mL
same,MIC,[3]; novobiocin-adapted Evolved 3,0.016 µg/mL
same,MIC,[3]; novobiocin-adapted Evolved 4,0.25 µg/mL
same,MIC,[3]; novobiocin-adapted Evolved 5,0.063 µg/mL
same,MIC,[3]; novobiocin-adapted Evolved 6,0.063 µg/mL
same,MIC,[3]; novobiocin-adapted Evolved 7,0.125 µg/mL
same,MIC,[3]; novobiocin-adapted Evolved 8,0.125 µg/mL
same,MIC,[3]; novobiocin-adapted Evolved 9,0.016 µg/mL
same,IC50,[4],> 100 µM
same,IC50,[5],0.0093 ± 0.0022 µM
same,MIC,[6]; VISA GyrB I175T,0.198 µg/mL
same,MIC,[6]; VISA GyrB R144G,0.132 µg/mL
same,MIC,[6]; VISA GyrB R144I,0.198 µg/mL
same,MIC,"[6]; VISA wt, read-out: MIC",0.04 µg/mL
same,MIC,[6]; [10],4 µg/mL
same,MIC,[6]; [11],4 µg/mL
same,MIC,"[6]; second-step mutant, selection ULD1 at 16× MIC, GyrB I175T, ParE R136G",4 µg/mL
same,MIC,[6]; [12],2 µg/mL
same,MIC,[6]; [13],2 µg/mL
same,MIC,[6]; [14],2 µg/mL
same,MIC,[6]; [15],2 µg/mL
same,MIC,[6]; [16],2 µg/mL
same,MIC,[6]; [17],4 µg/mL
same,MIC,[6]; [18],2 µg/mL
same,MIC,[6]; [19],2 µg/mL
same,MIC,[6]; [20],4 µg/mL
same,mutant prevention concentration (MPC),[7],0.16 µg/mL
same,Spontaneous frequency-of-resistance (replicates),[7]; [21],2e-9 and 2.769e-9 and 5.333e-10 and 1.1e-9 and 1.263e-9 and 2.587e-9 and 2.787e-9 and 2.50E-09 and 3.14E-09 and 4.80E-09
same,Spontaneous frequency-of-resistance (replicates),[7]; [22],9.286e-10 and 7.692e-10 and 1.333e-10 and 5e-10 and 9.868e-10 and 1.045e-9 and 7.377e-10 and 1.30E-09 and 9.54E-10 and 1.09E-08 and 7.14E-11
same,Spontaneous frequency-of-resistance (replicates),[7]; [23],1.00E-12
same,Spontaneous frequency-of-resistance (replicates),[7]; [24],2.06e-9 and 1.815e-9 and 2.326e-9 and 1.86e-9 and 1.40E-09 and 7.33E-10 and 2.00E-09 and 1.64E-09 and 3.594e-9 and 2.426e-9
same,Spontaneous frequency-of-resistance (replicates),[7]; [25],1.00E-12 and 3.109e-10 and 2.252e-10 and 3.243e-10 and 3.9801e-10 and 2.304e-10 and 2.871e-10 and 1.676e-10
same,Spontaneous frequency-of-resistance (replicates),[7]; [26],1.00E-12
same,resistant variants detected,"[7]; exposure at 8-fold the wild-type MIC, S. aureus, in words",no resistant variants of S. aureus have been detected
same,Time-kill bacterial count,[8]; time 0 hour,2.80E+05
same,Time-kill bacterial count,[8]; time 3 hour,9.80E+04
same,Time-kill bacterial count,[8]; time 6 hour,6.30E+04
same,Time-kill bacterial count,[8]; time 12 hour,4.90E+03
same,Time-kill bacterial count,[8]; time 18 hour,1.70E+03
same,Time-kill bacterial count,[8]; time 24 hour,8.50E+02
same,Time-kill bacterial count,[8]; time 48 hour,1.60E+02
same,cell killing (bactericidal) activity,[8],exceed that of fusidic acid
same,Colony numbers,"[8]; time 0 h, Dilution 100",145 and 132 and 137
same,Colony numbers,"[8]; time 3 h, Dilution 100",54 and 53 and 40
same,Colony numbers,"[8]; time 6 h, Dilution 100",38 and 20 and 36
same,Colony numbers,"[8]; time 12 h, Dilution 10",20 and 23 and 31
same,Colony numbers,"[8]; time 18 h, Dilution 1",83 and 63 and 113
same,Colony numbers,"[8]; time 24 h, Dilution 0.5",65 and 80 and 110
Cc1[nH]c(C(=O)Nc2nc3c(OCc4ccccc4)cc(C(=O)O)cc3s2)c(Cl)c1Cl [ULD2],Max. % inhibition at 100 µM,[1],Max. % inhibition at 100 µM: 1.96%
same,IC50,[2],> 100 µM
same,cross-resistance of novobiocin-resistant isolates,"[3]; 9 independently evolved novobiocin-resistant isolates, in words",no cross-resistance
same,MIC,[3]; [9],0.02 µg/mL
same,MIC,[3]; novobiocin-adapted Evolved 1,0.016 µg/mL
same,MIC,[3]; novobiocin-adapted Evolved 2,0.016 µg/mL
same,MIC,[3]; novobiocin-adapted Evolved 3,0.016 µg/mL
same,MIC,[3]; novobiocin-adapted Evolved 4,0.063 µg/mL
same,MIC,[3]; novobiocin-adapted Evolved 5,0.031 µg/mL
same,MIC,[3]; novobiocin-adapted Evolved 6,0.016 µg/mL
same,MIC,[3]; novobiocin-adapted Evolved 7,0.016 µg/mL
same,MIC,[3]; novobiocin-adapted Evolved 8,0.016 µg/mL
same,MIC,[3]; novobiocin-adapted Evolved 9,0.016 µg/mL
same,IC50,[4],> 100 µM
same,IC50,[5],0.002 ± 0.0003 µM
same,MIC,[6]; VISA GyrB I175T,0.088 µg/mL
same,MIC,[6]; VISA GyrB R144G,0.058 µg/mL
same,MIC,[6]; VISA GyrB R144I,0.058 µg/mL
same,MIC,"[6]; VISA wt, read-out: MIC",0.02 µg/mL
same,MIC,[6]; [10],0.25 µg/mL
same,MIC,[6]; [11],0.25 µg/mL
same,MIC,[6]; [12],0.125 µg/mL
same,MIC,[6]; [13],0.25 µg/mL
same,MIC,[6]; [14],0.25 µg/mL
same,MIC,[6]; [15],0.125 µg/mL
same,MIC,[6]; [16],0.25 µg/mL
same,MIC,"[6]; second-step mutant, selection ULD1 at 16× MIC, GyrB R144I, ParE R136L",0.125 µg/mL
same,MIC,[6]; [17],1 µg/mL
same,MIC,[6]; [18],0.125 µg/mL
same,MIC,[6]; [19],0.25 µg/mL
same,MIC,[6]; [20],0.25 µg/mL
same,concentration inhibiting all isolated double mutants and laboratory evolved strains,[6]; {},≤ 1 µg/mL
same,concentration inhibiting all isolated second-step resistant mutants,[6]; {},≤ 1 µg/mL
same,resistant mutants emerged,"[7]; 4×10^12 S. aureus ATCC 700699 (VISA) cells, 4 times the wild-type MIC, in words",no ULD2 resistant mutants have emerged
same,mutant prevention concentration (MPC),[7],0.08 µg/mL
same,Spontaneous frequency-of-resistance (replicates),[7]; [21],1.00E-12 and 1.529e-10 and 1.99e-10 and 7.692e-11 and 9.00E-10 and 1.80E-09 and 1.43E-10
same,Spontaneous frequency-of-resistance (replicates),[7]; [22],5.00E-11 and 1.67E-10 and 7.14E-11 and 1.00E-12
same,Spontaneous frequency-of-resistance (replicates),[7]; [23],1.00E-12
same,Spontaneous frequency-of-resistance (replicates),[7]; [24],1.00E-12 and 8.77E-11
same,Spontaneous frequency-of-resistance (replicates),[7]; [25],1.00E-12
same,Spontaneous frequency-of-resistance (replicates),[7]; [26],1.00E-12
same,Time-kill bacterial count,[8]; time 0 hour,2.80E+05
same,Time-kill bacterial count,[8]; time 3 hour,9.90E+04
same,Time-kill bacterial count,[8]; time 6 hour,5.60E+04
same,Time-kill bacterial count,[8]; time 12 hour,7.00E+03
same,Time-kill bacterial count,[8]; time 18 hour,4.90E+02
same,Time-kill bacterial count,[8]; time 24 hour,1.90E+02
same,Time-kill bacterial count,[8]; time 48 hour,1.70E+01
same,cell killing (bactericidal) activity,[8],exceed that of fusidic acid
same,Colony numbers,"[8]; time 0 h, Dilution 100",145 and 132 and 137
same,Colony numbers,"[8]; time 3 h, Dilution 100",56 and 39 and 53
same,Colony numbers,"[8]; time 6 h, Dilution 100",28 and 24 and 32
same,Colony numbers,"[8]; time 18 h, Dilution 1",31 and 22 and 20
same,Colony numbers,"[8]; time 48 h, Dilution 0.5",1 and 2
